{
  "source": "paper PMC3112382",
  "about": "“Crystal structures of a halophilic archaeal malate synthase from Haloferax volcanii and comparisons with isoforms A and G” (BMC Structural Biology, 2011)",
  "key": {"[1]": {"biological_target": "T1, H. volcanii malate synthase isoform H (hvMSH) (Haloferax volcanii, UniProt D4GTL2)", "T1 construct": "gene aceB; full-length native enzyme, purified from H. volcanii grown on acetate, no tag; trimer/hexamer equilibrium", "T1 sequence (D4GTL2 1-433)": "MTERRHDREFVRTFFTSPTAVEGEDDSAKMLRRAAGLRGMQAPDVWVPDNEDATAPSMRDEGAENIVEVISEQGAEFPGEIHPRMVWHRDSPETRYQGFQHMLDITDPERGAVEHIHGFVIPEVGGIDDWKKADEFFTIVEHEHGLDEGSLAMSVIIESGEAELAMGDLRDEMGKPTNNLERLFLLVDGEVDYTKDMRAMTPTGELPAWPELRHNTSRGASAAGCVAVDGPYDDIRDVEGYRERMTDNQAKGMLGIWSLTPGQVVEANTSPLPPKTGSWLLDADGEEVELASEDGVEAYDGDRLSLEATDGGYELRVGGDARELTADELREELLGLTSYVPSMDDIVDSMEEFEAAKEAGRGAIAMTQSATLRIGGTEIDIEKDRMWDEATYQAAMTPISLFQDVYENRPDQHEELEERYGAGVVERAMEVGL", "assay": "X-ray crystal structure, […] Å", "type": "binding", "settings": "~70 mM pyruvate, ~0.15 M acetyl-CoA, 50 mM MgCl2 soak, active site"}, "[2]": {"biological_target": "T1, H. volcanii malate synthase isoform H (hvMSH)", "assay": "X-ray crystal structure, […] Å", "type": "binding", "settings": "~0.1 M glyoxylate and ~0.1 M MgCl2 soak; active site, on Mg2+; second, weak glyoxylate at acetyl-CoA thioester position; low-occupancy complex (3 mM glyoxylate) is 3PUG"}},
  "data": [
    {"smiles": "CC(=O)C(=O)O", "note": "[pyruvate]", "values": [
      {"measurement": "X-ray crystal structure, 1.95 Å", "setting": "[1]; ternary complex with acetyl-CoA, glyoxylate position", "result": "one molecule of pyruvate, one molecule of acetyl-CoA, one magnesium ion"}
    ]},
    {"smiles": "CC(=O)SCCNC(=O)CCNC(=O)[C@H](O)C(C)(C)COP(=O)(O)OP(=O)(O)OC[C@H]1O[C@@H](n2cnc3c(N)ncnc32)[C@H](O)[C@@H]1OP(=O)(O)O", "note": "[acetyl-coenzyme A]", "values": [
      {"measurement": "X-ray crystal structure, 1.95 Å", "setting": "[1]; ternary complex with pyruvate", "result": "one molecule of pyruvate, one molecule of acetyl-CoA, one magnesium ion"}
    ]},
    {"smiles": "O=CC(=O)O", "note": "[glyoxylate]", "values": [
      {"measurement": "X-ray crystal structure, 2.51 Å", "setting": "[2]", "result": "One glyoxylate molecule is bound to the Mg2+ at the active site"}
    ]}
  ]
}
